Results reported in US20250282768A1 (Janssen Pharmaceutica NV, priority 2022, published 2025).

System: p-IKKa levels in L363 (NIK translocated multiple myeloma) cells
Assay: Assay 2: Effect of compounds on p-IKKa levels in L363 (NIK translocated multiple myeloma) cells
Assay type: cell-based
Conditions: Homo sapiens, L-363, 6 h, read-out: Assay 2 IC50 (nM), p-IKKa (Ser 176/180) in BAFF stimulated L363 cells with MG132, 6 h; average if tested more than once
Procedure, shortened: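 Read-out is p-IKKa Ser176/180 by AlphaLISA SureFire in lysates. Cells were BAFF-primed (250 ng/ml) overnight or left unstimulated, then exposed 6 h at 37 °C to compound with MG132 (10 μM), 0.3% DMSO. IC50 from sigmoidal curve fit, normalized between stimulated and unstimulated controls.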

Row | SMILES | IC50
1 | CN1CC(F)(F)[C@@](O)(c2cc(-c3cncc(-c4ccnc(Nc5ccn(C)n5)n4)n3)no2)C1=O [Example 94, (R)-4,4-Difluoro-3-hydroxy-1-methyl-3-(3-(6-(2-((1-methyl-1H-pyrazol-3-yl)amino)pyrimidin-4-yl)pyrazin-2-yl)isoxazol-5-yl)pyrrolidin-2-one] | 50 to 500 nM
2 | CO[C@H]1COCC[C@@H]1Nc1nccc(-c2cccc(-c3cc([C@]4(O)CCN(C)C4=O)on3)n2)n1 (stereo in doubt) [Example 355, (R)-3-Hydroxy-3-(3-(6-(2-(((trans)-3-methoxytetrahydro-2H-pyran-4-yl)amino)pyrimidin-4-yl)pyridin-2-yl)isoxazol-5-yl)-1-methylpyrrolidin-2-one] | > 500 nM
3 | CC(Nc1nccc(-c2cccc(-c3cc([C@]4(O)CCN(C)C4=O)on3)n2)n1)c1cnco1 (stereo partly drawn) [Example 372, (3R)-3-Hydroxy-1-methyl-3-(3-(6-(2-((1-(oxazol-5-yl)ethyl)amino)pyrimidin-4-yl)pyridin-2-yl)isoxazol-5-yl)pyrrolidin-2-one] | 50 to 500 nM
4 | C[C@H](CC(F)(F)F)Nc1nccc(-c2cccc(-c3cc([C@]4(O)CCN(C)C4=O)on3)n2)n1 (single isomer, unassigned) [Example 438, (R)-3-Hydroxy-1-methyl-3-(3-(6-(2-(((*R)-4,4,4-trifluorobutan-2-yl)amino)pyrimidin-4-yl)pyridin-2-yl)isoxazol-5-yl)pyrrolidin-2-one] | 50 to 500 nM
5 | CN1CC[C@@](O)(c2cc(-c3cccc(-c4ccnc(Nc5cnn(C)c5F)n4)n3)no2)C1=O [Example 329, (R)-3-(3-(6-(2-((5-Fluoro-1-methyl-1H-pyrazol-4-yl)amino)pyrimidin-4-yl)pyridin-2-yl)isoxazol-5-yl)-3-hydroxy-1-methylpyrrolidin-2-one] | < 50 nM
6 | CN1CC[C@@](O)(c2cn(-c3cccc(-c4ccnc(Nc5cn(C)nc5F)n4)n3)nn2)C1=O [Example 325, (R)-3-(1-(6-(2-((3-Fluoro-1-methyl-1H-pyrazol-4-yl)amino)pyrimidin-4-yl)pyridin-2-yl)-1H-1,2,3-triazol-4-yl)-3-hydroxy-1-methylpyrrolidin-2-one] | 50 to 500 nM
7 | CN1CC[C@@](O)(c2cn(-c3cccc(-c4ccnc(Nc5cnn(CC(F)(F)F)c5)n4)n3)nn2)C1=O [Example 403, (R)-3-Hydroxy-1-methyl-3-(1-(6-(2-((1-(2,2,2-trifluoroethyl)-1H-pyrazol-4-yl)amino)pyrimidin-4-yl)pyridin-2-yl)-1H-1,2,3-triazol-4-yl)pyrrolidin-2-one] | < 50 nM
8 | C[C@H](Nc1nccc(-c2cccc(-c3cc([C@]4(O)CCN(C)C4=O)on3)n2)n1)c1ncc[nH]1 [Example 370, (R)-3-(3-(6-(2-(((S)-1-(1H-Imidazol-2-yl)ethyl)amino)pyrimidin-4-yl)pyridin-2-yl)isoxazol-5-yl)-3-hydroxy-1-methylpyrrolidin-2-one] | > 500 nM
9 | CN1CC[C@@](O)(c2cc(-c3cccc(-c4ccnc(Nc5cc(CN6CCOCC6)n(C)n5)n4)n3)no2)C1=O [Example 434, (R)-3-Hydroxy-1-methyl-3-(3-(6-(2-((1-methyl-5-(morpholinomethyl)-1H-pyrazol-3-yl)amino)pyrimidin-4-yl)pyridin-2-yl)isoxazol-5-yl)pyrrolidin-2-one] | 50 to 500 nM
10 | Cc1cc(Nc2nccc(-c3cccc(-n4cc([C@]5(O)CCN(C)C5=O)nn4)n3)n2)ccn1 [Example 191, (R)-3-Hydroxy-1-methyl-3-(1-(6-(2-((2-methylpyridin-4-yl)amino)pyrimidin-4-yl)pyridin-2-yl)-1H-1,2,3-triazol-4-yl)pyrrolidin-2-one] | < 50 nM
11 | Cc1ccc(Nc2nccc(-c3cccc(-c4cc([C@]5(O)CCN(C)C5=O)on4)n3)n2)nn1 [Example 256, (R)-3-Hydroxy-1-methyl-3-(3-(6-(2-((6-methylpyridazin-3-yl)amino)pyrimidin-4-yl)pyridin-2-yl)isoxazol-5-yl)pyrrolidin-2-one] | 50 to 500 nM
12 | C[C@@H](Nc1nccc(-c2cccc(-c3cc([C@]4(O)CCN(C)C4=O)no3)n2)n1)c1cnn(C)c1 (single isomer, unassigned) [Example 401] | < 50 nM
13 | C[C@H](CF)Nc1nccc(-c2cccc(-c3cc([C@]4(O)CCN(C)C4=O)on3)n2)n1 [Example 353, (R)-3-(3-(6-(2-(((R)-1-Fluoropropan-2-yl)amino)pyrimidin-4-yl)pyridin-2-yl)isoxazol-5-yl)-3-hydroxy-1-methylpyrrolidin-2-one] | 50 to 500 nM
14 | CN1CC[C@](O)(c2cnn(-c3cccc(-c4ccnc(Nc5cnn(C)c5)n4)n3)c2)C1=O (single isomer, unassigned) [Example 77] | 50 to 500 nM
15 | C[C@H](Nc1nccc(-c2cccc(-c3cc([C@]4(O)CCN(C)C4=O)on3)n2)n1)c1ccc2nccn2c1 [Example 153, (R)-3-Hydroxy-3-(3-(6-(2-(((S)-1-(imidazo[1,2-a]pyridin-6-yl)ethyl)amino)pyrimidin-4-yl)pyridin-2-yl)isoxazol-5-yl)-1-methylpyrrolidin-2-one] | > 500 nM
16 | Cc1noc([C@H](C)Nc2nccc(-c3cccc(-c4cc([C@]5(O)CCN(C)C5=O)on4)n3)n2)n1 (single isomer, unassigned) [Example 151] | 50 to 500 nM
17 | COc1ccc(Nc2nccc(-c3cccc(-c4cc([C@]5(O)CCN(C)C5=O)on4)n3)n2)nn1 [Example 255, (R)-3-Hydroxy-3-(3-(6-(2-((6-methoxypyridazin-3-yl)amino)pyrimidin-4-yl)pyridin-2-yl)isoxazol-5-yl)-1-methylpyrrolidin-2-one] | 50 to 500 nM
18 | C[C@H](Nc1nccc(-c2cccc(-c3cc([C@]4(O)CCN(C)C4=O)on3)n2)n1)c1ccnn1C (single isomer, unassigned) [Example 68] | 50 to 500 nM
19 | CN1CC[C@@](O)(c2cc(-c3cccc(-c4ccnc(Nc5nn(C)c6ccncc56)n4)c3)no2)C1=O [Example 420, (R)-3-Hydroxy-1-methyl-3-(3-(3-(2-((1-methyl-1H-pyrazolo[4,3-c]pyridin-3-yl)amino)pyrimidin-4-yl)phenyl)isoxazol-5-yl)pyrrolidin-2-one] | > 500 nM
20 | [2H]c1cc(-c2cccc(-n3cc([C@]4(O)CCN(C)C4=O)nn3)n2)nc(Nc2ccn(CC)n2)n1 [Example 301, (R)-3-(1-(6-(2-((1-Ethyl-1H-pyrazol-3-yl)amino)pyrimidin-4-yl-6-d)pyridin-2-yl)-1H-1,2,3-triazol-4-yl)-3-hydroxy-1-methylpyrrolidin-2-one] | < 50 nM
21 | CN1CC[C@@](O)(c2cc(-c3cccc(-c4ccnc(Nc5cnn6c5OCCC6)n4)c3)no2)C1=O [Example 15, (R)-3-(3-(3-(2-((6,7-Dihydro-5H-pyrazolo[5,1-b][1,3]oxazin-3-yl)amino)pyrimidin-4-yl)phenyl)isoxazol-5-yl)-3-hydroxy-1-methylpyrrolidin-2-one] | > 500 nM
22 | CC(Nc1nccc(-c2cccc(-c3cc([C@]4(O)CCN(C)C4=O)on3)n2)n1)c1cocn1 (stereo partly drawn) [Example 373, (3R)-3-Hydroxy-1-methyl-3-(3-(6-(2-((1-(oxazol-4-yl)ethyl)amino)pyrimidin-4-yl)pyridin-2-yl)isoxazol-5-yl)pyrrolidin-2-one] | 50 to 500 nM
